Values joined by “and” are separate entries in the source; they are usually repeats but may differ in a detail not shown here. Equal entries are not always repeated. Where two headings read alike, the source gives them in different places.
Experiments:
guinea pig β2AR = guinea pig β2AR (Cavia porcellus, UniProt Q8K4Z4); assay: 125I-CYP radioligand competition binding, guinea pig β2AR; conditions: Cmpd-6 [25 uM]
guinea pig lung slices = assay: Methacholine-induced airway constriction in guinea pig lung slices; assay type: cell-based; conditions: for EC50: read-out: MCh EC50
Procedure: All curve fits were generated using the software program GraphPad Prism. Data are represented as mean ± SEM obtained from 6 guinea pigs.
(§1) Precision-cut lung slices were prepared as described previously ([61], [62]). A 3% solution of low melting-point agarose (Gerbu Biotechnik GmbH) in ultrapure water was prepared by heating it a microwave until fully dissolved. […] After filling, the lungs were covered with ice for 30 minutes to solidify the agarose for slicing. […] Lung slices were cut at a thickness of 500 μm and washed several times with slicing buffer to remove debris and washout the isoproterenol. Slices were incubated overnight in a 60 mm dish in sterile incubation buffer: MEM composed of lung slice buffer supplemented with 0.5 mM sodium pyruvate, 1 mM glutamine (Gibco), MEM-amino acids mixture (1:50), MEM-vitamins mixture (1:100; Gibco), and penicillin-streptomycin (1:100; Gibco), pH = 7.2, at 37°C in a CO2- and humidity-controlled atmosphere.
(§2) After washing the slices in medium, individual guinea pig lung slices were mechanically maintained with a Teflon ring with an inner diameter of 7 mm and covered with 1 mL of incubation buffer. […] Image acquisition software (NIS-Elements, Nikon) was used to quantify airway luminal area. Images of the airways were acquired every 2 seconds during the whole course of the experiment, starting 2 minutes before the addition of any agent to allow for baseline measurements of the airway caliber. For each methacholine or ovalbumin concentration, the maximal airway constriction was expressed as percentage of the initial (baseline) airway luminal area and plotted against that concentration.

human lung slices = assay: Methacholine-induced airway constriction in human lung slices; assay type: cell-based; design: key to MCh-induced airway constriction response (Figure 7): % of initial airway luminal area; conditions: for MCh-induced airway constriction response (Figure 7): 1 µM Fenoterol + 25 µM Cmpd-6, donor 1-4
Excerpt: All curve fits were generated using the software program GraphPad Prism. Data are represented as mean ± SEM of 4 human donors (see Table 3 for statistical analyses).
Precision-cut human lung slices were purchased from AnaBios and stored in a liquid nitrogen tank. Lung tissue was obtained postmortem and consent for research was obtained by AnaBios for all donors. Characteristics of the donors of the lung tissue are shown in Supplemental Table 2. Slices were rapidly thawed following instructions from AnaBios.
After washing, individual human lung slices were mechanically maintained with a Teflon ring with an inner diameter of 7 mm and covered with 1 mL of incubation buffer. […] Image acquisition software (NIS-Elements, Nikon) was used to quantify airway luminal area. […] Airway constriction in response to each methacholine concentration was expressed as percentage of the initial airway luminal area.

[1] = test system: lung slices obtained from ovalbumin-sensitized guinea pigs; assay: Ovalbumin-induced airway constriction in lung slices from ovalbumin-sensitized guinea pigs; assay type: cell-based, guinea pig; design: key to OVA-induced airway constriction response (Figure 6): max constriction as % of initial (baseline) airway luminal area; conditions: 0.1 µM Fenoterol + 25 µM Cmpd-6, Exp1-5
Excerpt: All curve fits were generated using the software program GraphPad Prism. Data are represented as mean ± SEM of 4–5 guinea pigs (see Table 2 for statistical analyses).
Outbred, male, specified pathogen-free Dunkin Hartley guinea pigs (Charles River Laboratory) weighing 200 to 400 g were used. The animals were housed in pairs under a 12-hour light/dark cycle in a temperature- and humidity-controlled room with food and tap water ad libitum. For studies in the guinea pig model of allergic asthma, animals were actively IgE-sensitized to ovalbumin by injecting a suspension containing 100 μg/mL ovalbumin and 100 mg/mL Al(OH)3 in saline. Each animal was injected with 1.0 mL of suspension: 0.5 mL was injected i.p. and 0.5 mL was divided over 7 s.c. sites close to lymph nodes in the neck, paws, and lumbar regions ([24]). Animals were euthanized at least 4 weeks after sensitization.
as §1, §2

Sequence of guinea pig β2AR (Q8K4Z4 whole entry): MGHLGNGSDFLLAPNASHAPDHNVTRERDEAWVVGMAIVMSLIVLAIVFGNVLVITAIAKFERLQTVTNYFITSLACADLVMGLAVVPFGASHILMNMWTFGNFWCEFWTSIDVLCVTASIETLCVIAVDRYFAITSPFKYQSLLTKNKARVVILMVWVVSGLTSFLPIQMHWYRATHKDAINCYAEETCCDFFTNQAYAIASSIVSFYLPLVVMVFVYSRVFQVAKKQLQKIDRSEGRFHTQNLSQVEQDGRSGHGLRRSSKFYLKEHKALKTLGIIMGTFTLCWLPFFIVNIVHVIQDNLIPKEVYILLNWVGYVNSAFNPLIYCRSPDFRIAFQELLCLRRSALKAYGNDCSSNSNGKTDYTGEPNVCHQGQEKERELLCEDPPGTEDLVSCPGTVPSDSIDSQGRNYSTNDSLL

Q: How did the “125I-CYP binding, Salm competition curve (Figure 4F)” value (shortened to “125I-CYP binding”) (guinea pig β2AR; Log [Salm] (M) -5.69897) turn out when `COc1ccc(Sc2ccc(S(=O)(=O)N(C)C(C)C)cc2C(=O)N[C@H](CC(N)=O)Cc2ccc(C(C)(C)C)cc2)cc1` [Cmpd-6] was run?
A: The value was 11.1208 and 11.4804 and 19.9536 and 11.286.

Q: And the “125I-CYP binding” value (guinea pig β2AR; Log [Salm] (M) -6.30103)?
A: The value was 31.3057 and 32.3004 and 47.2072 and 32.0545.

Q: And the “125I-CYP binding” value (guinea pig β2AR; Log [Salm] (M) -6.90309)?
A: The value was 67.1995 and 66.2422 and 79.0931 and 66.807.

Q: And the “125I-CYP binding” value (guinea pig β2AR; Log [Salm] (M) -7.50515)?
A: Its value is 88.5873 and 88.904 and 95.0429 and 88.3948.

Q: And the “125I-CYP binding” value (guinea pig β2AR; Log [Salm] (M) -8.10721)?
A: Its value is 97.9774 and 97.2972 and 97.374 and 97.0377.

Q: And the “125I-CYP binding” value (guinea pig β2AR; Log [Salm] (M) -8.70927)?
A: The value was 99.3713 and 100.399 and 100.671 and 100.779.

Q: What about the “125I-CYP binding” value (guinea pig β2AR; Log [Salm] (M) -9.31133) of the same compound?
A: Its value is 100.672 and 102.486 and 99.6753 and 100.402.

Q: And the “125I-CYP binding” value (guinea pig β2AR; Log [Salm] (M) -9.91339)?
A: Its value is 96.4457 and 99.6997 and 100.705 and 99.5228.

Q: What about the “125I-CYP binding” value (guinea pig β2AR; Log [Salm] (M) -11 (DMSO)) of the same compound?
A: The value was 100.872 and 95.2897 and 98.0192 and 98.0519.

Q: And the “MCh Emax” value (guinea pig lung slices; 1 μM Fenoterol + 25 μM Cmpd-6)?
A: The value was 112.3 ± 9.5%.

Q: And the EC50 (guinea pig lung slices; 1 μM Fenoterol + 25 μM Cmpd-6)?
A: The EC50 was 590 ± 90 nM.

Q: What about the “MCh Emax” value (guinea pig lung slices; 10 μM Fenoterol + 25 μM Cmpd-6) of the same compound?
A: Its value is 100.9 ± 3.2%.

Q: And the EC50 (guinea pig lung slices; 10 μM Fenoterol + 25 μM Cmpd-6)?
A: Its EC50 is 980 ± 120 nM.

Q: What about the “Augmentation of airway smooth muscle responsiveness to fenoterol” value (guinea pig lung slices; 25 μM Cmpd-6) of the same compound?
A: Its value is 10 fold.

Q: What about the “MCh Emax” value (guinea pig lung slices; 25 μM Cmpd-6 alone) of the same compound?
A: The value was 100.0 ± 2.0%.

Q: What about the EC50 (guinea pig lung slices; 25 μM Cmpd-6 alone) of the same compound?
A: The EC50 was 280 ± 50 nM.

Q: And the “MCh Emax” value (human lung slices; 1 μM Fenoterol + 25 μM Cmpd-6)?
A: The value was 26.5 ± 4.4^A %.

Q: And the “MCh pD2” value (human lung slices; 1 μM Fenoterol + 25 μM Cmpd-6)?
A: Its value is 5.52 ± 0.24^B –log M.

Q: And the “MCh-induced airway constriction response (Figure 7)” value (human lung slices; -Log [MCh] 3.5)?
A: The value was 81.9 and 70.9 and 77.9 and 77.7.

Q: And the “MCh-induced airway constriction response (Figure 7)” value (human lung slices; -Log [MCh] 4)?
A: The value was 85.4 and 70.2 and 85.0 and 81.

Q: And the “MCh-induced airway constriction response (Figure 7)” value (human lung slices; -Log [MCh] 4.5)?
A: Its value is 87.4 and 88.5 and 81.1 and 82.0.

Q: What about the “MCh-induced airway constriction response (Figure 7)” value (human lung slices; -Log [MCh] 5) of the same compound?
A: Its value is 88.4 and 90.1 and 84.2 and 85.0.

Q: What about the “MCh-induced airway constriction response (Figure 7)” value (human lung slices; -Log [MCh] 5.5) of the same compound?
A: The value was 89.6 and 91.5 and 87.5 and 90.7.

Q: What about the “MCh-induced airway constriction response (Figure 7)” value (human lung slices; -Log [MCh] 6) of the same compound?
A: Its value is 90.7 and 94.3 and 90.0 and 93.1.

Q: What about the “MCh-induced airway constriction response (Figure 7)” value (human lung slices; -Log [MCh] 6.5) of the same compound?
A: Its value is 93.1 and 102.4 and 95.5 and 94.0.

Q: And the “MCh-induced airway constriction response (Figure 7)” value (human lung slices; -Log [MCh] 7)?
A: The value was 93.8 and 102.2 and 98.0 and 97.4.

Q: And the “MCh-induced airway constriction response (Figure 7)” value (human lung slices; -Log [MCh] 7.5)?
A: The value was 95.1 and 104.8 and 98.8 and 98.9.

Q: What about the “MCh-induced airway constriction response (Figure 7)” value (human lung slices; -Log [MCh] 8) of the same compound?
A: The value was 99.2 and 103.1 and 100.8 and 101.6.

Q: And the “MCh-induced airway constriction response (Figure 7)” value (human lung slices; -Log [MCh] 8.5)?
A: Its value is 96.5 and 109.1 and 101.7 and 103.0.

Q: What about the “MCh-induced airway constriction response (Figure 7)” value (human lung slices; -Log [MCh] 9) of the same compound?
A: The value was 95.6 and 107.7 and 98.0 and 98.3.

Q: What about the “Enhancement of the β2-agonist responsiveness” value (human lung slices; 25 μM Cmpd-6 + 1 μM fenoterol vs 10 μM fenoterol) of the same compound?
A: Its value is 10 fold.

Q: And the “OVA-induced airway constriction response (Figure 6)” value ([1]; [OVA] 0.001 ng/ml)?
A: Its value is 101.6 and 100.0 and 98.0 and 99.2 and 107.5.

Q: And the “OVA-induced airway constriction response (Figure 6)” value ([1]; [OVA] 0.01 ng/ml)?
A: The value was 101.3 and 100.0 and 95.9 and 96.7 and 107.5.

Q: What about the “OVA-induced airway constriction response (Figure 6)” value ([1]; [OVA] 0.1 ng/ml) of the same compound?
A: The value was 101.6 and 100.0 and 97.5 and 97.8 and 107.5.

Q: And the “OVA-induced airway constriction response (Figure 6)” value ([1]; [OVA] 1 ng/ml)?
A: The value was 101.6 and 99.9 and 95.4 and 99.0 and 107.5.

Q: What about the “OVA-induced airway constriction response (Figure 6)” value ([1]; [OVA] 10 ng/ml) of the same compound?
A: The value was 101.3 and 109.6 and 95.4 and 102.0 and 106.4.

Q: And the “OVA-induced airway constriction response (Figure 6)” value ([1]; [OVA] 100 ng/ml)?
A: The value was 102.3 and 105.5 and 95.6 and 99.3 and 107.0.

Q: And the “OVA-induced airway constriction response (Figure 6)” value ([1]; [OVA] 1000 ng/ml)?
A: Its value is 102.2 and 108.2 and 105.1 and 101.8.

Q: What about the “OVA-induced airway constriction response (Figure 6)” value ([1]; [OVA] 10000 ng/ml) of the same compound?
A: The value was 101.8 and 96.8 and 105.1 and 98.0 and 79.6.

Q: What about the “OVA-induced airway constriction response (Figure 6)” value ([1]; [OVA] 100000 ng/ml) of the same compound?
A: The value was 101.6 and 81.6 and 100.1 and 89.5 and 64.4.

Q: What about the “OVA-induced airway constriction response (Figure 6)” value ([1]; [OVA] 1000000 ng/ml) of the same compound?
A: The value was 101.0 and 77.3 and 94.7 and 90.3 and 74.1.
